Measured values: US6803501B2 (Monsanto Technology, LLC, priority 2000, dated 2004)
Where a chain is given by its changes, count along the chain named.

What was measured:
[1] = test system: native EPSPS from E. coli (wild type); details: read-out: apparent Ki for glyphosate; cited from earlier work
[2] = target: T1, Z. mays EPSPS variant glypR (Thr-Ile, Pro-Ser) (Zea mays, UniProt A0A1D6NVZ6, P168S/T164I); test: kinetic characterization of EPSP synthase (Table 4); format: biochemical; details: read-out: apparent Ki for glyphosate; with respect to PEP, saturating S3P
T1 sequence (A0A1D6NVZ6 63-506 T164I/P168S limits assumed): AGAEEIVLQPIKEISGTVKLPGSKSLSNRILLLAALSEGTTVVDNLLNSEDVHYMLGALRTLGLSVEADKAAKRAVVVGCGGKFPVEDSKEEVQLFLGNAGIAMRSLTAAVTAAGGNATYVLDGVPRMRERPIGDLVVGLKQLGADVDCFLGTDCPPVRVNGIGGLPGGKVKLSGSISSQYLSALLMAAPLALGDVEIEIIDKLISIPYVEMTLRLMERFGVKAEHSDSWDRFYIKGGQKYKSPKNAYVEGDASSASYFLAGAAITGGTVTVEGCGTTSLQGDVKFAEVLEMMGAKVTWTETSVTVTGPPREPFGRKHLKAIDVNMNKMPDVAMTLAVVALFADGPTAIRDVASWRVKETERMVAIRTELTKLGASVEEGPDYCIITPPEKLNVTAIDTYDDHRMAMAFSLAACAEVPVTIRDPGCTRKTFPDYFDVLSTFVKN
Description: (§1) Final sample volumes are approximately 0.5 ml.

[3] = target: T2, P. hybrida EPSPS variant glypR (Gly-Ala, Pro-Ser) (Petunia hybrida, UniProt P11043, G173A/P178S); test: as above; format: biochemical
T2 sequence (P11043 73-516 G173A/P178S): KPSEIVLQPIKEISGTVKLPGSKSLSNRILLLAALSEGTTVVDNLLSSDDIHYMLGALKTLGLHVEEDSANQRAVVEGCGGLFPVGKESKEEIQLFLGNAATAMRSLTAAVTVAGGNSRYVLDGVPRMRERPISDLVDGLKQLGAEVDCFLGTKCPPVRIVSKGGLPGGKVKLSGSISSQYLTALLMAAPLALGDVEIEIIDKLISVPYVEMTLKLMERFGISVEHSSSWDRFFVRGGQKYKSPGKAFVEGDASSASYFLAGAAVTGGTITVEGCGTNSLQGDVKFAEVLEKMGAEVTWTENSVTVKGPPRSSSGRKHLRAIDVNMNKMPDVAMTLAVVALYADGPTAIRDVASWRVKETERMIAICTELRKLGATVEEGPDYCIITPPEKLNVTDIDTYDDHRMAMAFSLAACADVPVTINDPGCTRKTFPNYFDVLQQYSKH
Description: as §1

[4] = target: T3, P. hybrida EPSPS variant glypR (Pro-Ser) (Petunia hybrida, UniProt P11043, P178S); test: as above; format: biochemical
T3 sequence (P11043 73-516 P178S): T2 sequence (P11043 73-516 G173A/P178S) with A101G
Description: as §1

[5] = target: T4, Z. mays glypS (wt) EPSPS (Zea mays, glyphosate sensitive, wild type) (Zea mays, UniProt A0A1D6NVZ6); test: as above; format: biochemical
T4 sequence (A0A1D6NVZ6 63-506 limits assumed): T1 sequence (A0A1D6NVZ6 63-506 T164I/P168S limits assumed) with I102T, S106P
Description: as §1

[6] = target: T5, E. indica glypS EPSPS (Eleusine indica, naturally occurring glyphosate sensitive, wild type) (Eleusine indica, UniProt Q95AK0); test: as above; format: biochemical
T5 construct: plant extract or E. coli SR481 extract
T5 sequence (Q95AK0 1-445): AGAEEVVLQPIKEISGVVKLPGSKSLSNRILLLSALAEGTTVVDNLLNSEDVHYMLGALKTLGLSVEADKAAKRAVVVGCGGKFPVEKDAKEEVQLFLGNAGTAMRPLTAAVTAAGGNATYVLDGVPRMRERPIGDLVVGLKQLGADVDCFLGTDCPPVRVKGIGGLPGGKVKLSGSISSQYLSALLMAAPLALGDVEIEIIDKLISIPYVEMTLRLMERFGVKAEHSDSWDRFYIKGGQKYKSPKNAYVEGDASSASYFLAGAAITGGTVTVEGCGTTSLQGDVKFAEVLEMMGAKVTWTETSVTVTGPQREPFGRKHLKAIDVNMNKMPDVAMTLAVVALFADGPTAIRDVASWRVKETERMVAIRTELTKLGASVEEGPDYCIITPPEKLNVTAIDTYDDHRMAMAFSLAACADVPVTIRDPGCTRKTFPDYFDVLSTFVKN
Description: as §1

[7] = test system: EPSPS of the glyphosate sensitive E. indica biotype (wild type, plant crown extract); test: radiometric EPSP synthase assay, glyphosate inhibition, plant extracts of sensitive biotype; format: biochemical, Eleusine indica; details: read-out: I50 (glyphosate); 1 mM shikimate-3-phosphate, 0.5 mM PEP, pH 7.0, 25° C.
Description: Preparation of extracts and radiometric EPSP synthase assays are performed using methods adapted from published procedures (Padgette et al., J. Biol. Chem. 266:22364-22369 (1991). Crown regions are dissected from whole plants, pulverized under liquid nitrogen with a mortar and pestle, then stored at −80° C. prior to extraction. Homogenates are prepared from 0.5 g tissue per sample in 25 ml extraction buffer (100 mM TrisCl, 10% glycerol, 1 mM EDTA, 1 mM benzamidine, 1 mM dithiothreitol, 1 mM 4-(2-aminoethyl)-benzenesulfonyl floride HCl, 0.1 mM leupeptin, pH 7.4) at 4° C. using a model PT3000 Polytron homogenizer (Brinkman Instuments Inc., Westbury, N.Y.). Debris is removed by 0.2 μm filtration, then the resulting supernatant is concentrated and desalted using an Ultrafree-15 centrifugal filtration unit (cat.#UFV2-BGC-10, Millipore Corp., Bedford, Mass.). Final sample volumes are approximately 0.5 ml. Protein concentrations are determined spectrophotometrically using the Bio-Rad protein assay reagent (cat.#500-0006, Bio-Rad Laboratories, Hercules, Calif.). EPSPS specific activities are determined by assaying 10 μl extract at 25° C. for 5-15 min. […] Reactions are quenched with the addition of 50 μl 9:1 ethanol: 0.1 M acetic acid. […]

[8] = test system: E. coli EPSPS glyphosate-resistant isolate, single amino acid substitution of an alanine for the glycine at position 96; details: read-out: apparent Ki for glyphosate; alanine for glycine at position 96; cited from earlier work

In the case of `O=C(O)CNCP(=O)(O)O` [glyphosate, N-phosphonomethylglycine], the Ki [1] is listed as 0.5 µM, the Ki [2] is listed as 60 µM and the Ki [3] is listed as 8500 µM. For the same molecule, the Ki [4] was 3 µM, the Ki [5] was 0.2 µM and the Ki [6] was 0.05 µM. The IC50 [7] was about 3 µM and the Ki [8] was 4000 µM.
